# Measurements from US20240376099A1, “COMPOUNDS AND COMPOSITIONS AS INHIBITORS OF ENDOSOMAL TOLL-LIKE RECEPTORS” (Novartis AG, priority 2016, published 2024).
# pIC50: −log10 of the molar value.
# Target: T1, TLR7 (Homo sapiens, UniProt Q9NYK1)
# T1 construct: Fresh blood was collected from normal human donors; endogenous in cells; host or cells: human PBMCs from fresh donor blood
# T1 sequence (Q9NYK1 27-1049): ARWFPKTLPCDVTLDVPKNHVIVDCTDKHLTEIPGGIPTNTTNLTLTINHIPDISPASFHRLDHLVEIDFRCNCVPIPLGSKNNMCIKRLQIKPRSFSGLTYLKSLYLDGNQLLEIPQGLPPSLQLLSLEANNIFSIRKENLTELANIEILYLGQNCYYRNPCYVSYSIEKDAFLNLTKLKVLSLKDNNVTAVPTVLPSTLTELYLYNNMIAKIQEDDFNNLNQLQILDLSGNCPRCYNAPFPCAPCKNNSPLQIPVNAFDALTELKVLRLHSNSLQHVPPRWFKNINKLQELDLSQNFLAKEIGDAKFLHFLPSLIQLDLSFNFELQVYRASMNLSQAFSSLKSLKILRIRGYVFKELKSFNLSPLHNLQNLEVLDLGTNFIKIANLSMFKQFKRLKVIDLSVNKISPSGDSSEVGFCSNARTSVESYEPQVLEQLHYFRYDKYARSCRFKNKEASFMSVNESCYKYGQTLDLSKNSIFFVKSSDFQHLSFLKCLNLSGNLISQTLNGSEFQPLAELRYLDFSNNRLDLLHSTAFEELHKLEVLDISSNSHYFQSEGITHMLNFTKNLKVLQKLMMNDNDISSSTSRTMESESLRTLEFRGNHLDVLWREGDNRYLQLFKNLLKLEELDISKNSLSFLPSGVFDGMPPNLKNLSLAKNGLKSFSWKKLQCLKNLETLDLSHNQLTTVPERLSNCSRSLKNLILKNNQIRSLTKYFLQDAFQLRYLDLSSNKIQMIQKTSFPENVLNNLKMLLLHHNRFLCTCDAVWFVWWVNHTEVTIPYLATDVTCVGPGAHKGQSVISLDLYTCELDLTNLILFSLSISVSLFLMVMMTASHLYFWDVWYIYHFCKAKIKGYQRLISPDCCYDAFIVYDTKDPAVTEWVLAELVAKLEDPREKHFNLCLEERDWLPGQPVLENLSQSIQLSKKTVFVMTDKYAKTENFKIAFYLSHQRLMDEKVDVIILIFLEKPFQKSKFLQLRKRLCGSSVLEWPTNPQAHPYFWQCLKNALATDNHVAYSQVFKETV
# Test: huPBMC TLR7 Antagonist IFNα Assay
# Format: cell-based
# Conditions: human PBMCs stimulated with ssRNA40 10 μg/mL (DOTAP), 14-16 hrs; IFNα2b AlphaLISA read-out
# Method in brief: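 Human PBMCs from fresh donor blood (150,000 cells/well) stimulated 14–16 h at 37 °C with DOTAP-complexed ssRNA40 (final 1 μg/ml for TLR8, 10 μg/mL for TLR7) or ODN2216 (final 0.3 μM, TLR9), 0.25% DMSO, ten-point 1/3 compound dilutions. Supernatant IL-6 read by HTRF (TLR8); IFNα by IFNα2b AlphaLISA (TLR7/TLR9).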
row,SMILES,pIC50
1,"Cc1cc(N2CCc3nn(CC45CC(N)(C4)C5)c(C)c3C2)c2cnn(C)c2n1 [compound 52, 3-((5-(1,6-dimethyl-1H-pyrazolo[3,4-b]pyridin-4-yl)-3-methyl-4,5,6,7-tetrahydro-2H-pyrazolo[4,3-c]pyridin-2-yl)methyl)bicyclo[1.1.1]pentan-1-amine]",6.52
2,"CCOCCN(CCOCC)C12CCC(Cn3nc(C)c4c3CCN(c3cc(C)nc5c3cnn5C)C4)(CC1)CC2 [compound 72, 4-((5-(1,6-dimethyl-1H-pyrazolo[3,4-b]pyridin-4-yl)-3-methyl-4,5,6,7-tetrahydro-1H-pyrazolo[4,3-c]pyridin-1-yl)methyl)-N,N-bis(2-ethoxyethyl)bicyclo[2.2.2]octan-1-amine]",7.43
3,"COc1ccc(Cn2ncc3c(N4CCc5c(c(C)nn5CC56CCC(N)(CC5)CC6)C4)cc(C)nc32)cc1 [Compound No. 53, 4-((5-(1-(4-methoxybenzyl)-6-methyl-1H-pyrazolo[3,4-b]pyridin-4-yl)-3-methyl-4,5,6,7-tetrahydro-1H-pyrazolo[4,3-c]pyridin-1-yl)methyl)bicyclo[2.2.2]octan-1-amine]",6.07
4,"Cc1cc(N2CCc3c(c(C)nn3CC34CCC(N5CCCC5)(CC3)CC4)C2)c2ccncc2n1 [compound 86, 2-methyl-4-(3-methyl-1-((4-(pyrrolidin-1-yl)bicyclo[2.2.2]octan-1-yl)methyl)-6,7-dihydro-1H-pyrazolo[4,3-c]pyridin-5(4H)-yl)-1,7-naphthyridine]",7.09
5,"Cc1cc(N2CCc3c(c(C)nn3CC34CCC(N)(CC3)CC4)C2)c2cnn(C)c2n1 [Compound No. 1, 4-((5-(1,6-dimethyl-1H-pyrazolo[3,4-b]pyridin-4-yl)-3-methyl-4,5,6,7-tetrahydro-1H-pyrazolo[4,3-c]pyridin-1-yl)methyl)bicyclo[2.2.2]octan-1-amine]",7.60
6,"Cc1cc(N2CCc3c(c(C)nn3CC34CCC(N)(CC3)CC4)C2)c2ccnc(C)c2n1 [compound 92, 4-((5-(2,8-dimethyl-1,7-naphthyridin-4-yl)-3-methyl-4,5,6,7-tetrahydro-1H-pyrazolo[4,3-c]pyridin-1-yl)methyl)bicyclo[2.2.2]octan-1-amine]",6.80
7,"Cc1cc(N2CCc3c(c(C)nn3CC34CCC(O)(CC3)CC4)C2)c2cnn(C)c2n1 [compound 46, 4-((5-(1,6-dimethyl-1H-pyrazolo[3,4-b]pyridin-4-yl)-3-methyl-4,5,6,7-tetrahydro-1H-pyrazolo[4,3-c]pyridin-1-yl)methyl)bicyclo[2.2.2]octan-1-ol]",7.25
8,"Cc1cc(N2CCc3c(c(C)nn3CC34CCC(N)(CC3)CC4)C2)c2cn[nH]c2n1 [Compound No. 2, 4-((3-methyl-5-(6-methyl-1H-pyrazolo[3,4-b]pyridin-4-yl)-4,5,6,7-tetrahydro-1H-pyrazolo[4,3-c]pyridin-1-yl)methyl)bicyclo[2.2.2]octan-1-amine]",7.42

# These reach a higher pIC50. Values come first.
row,pIC50,SMILES
1,7.66,"Cc1cc(N2CCc3c(c(C)nn3CCC34CCC(N)(CC3)CC4)C2)c2cnn(C)c2n1 [compound 91, 4-(2-(5-(1,6-dimethyl-1H-pyrazolo[3,4-b]pyridin-4-yl)-3-methyl-4,5,6,7-tetrahydro-1H-pyrazolo[4,3-c]pyridin-1-yl)ethyl)bicyclo[2.2.2]octan-1-amine]"
2,7.70,"Cc1cc(N2CCc3c(c(C)nn3CC34CCC(N(C)C(=O)OC(C)(C)C)(CC3)CC4)C2)c2cnn(C)c2n1 [Compound No. 49, tert-butyl (4-((5-(1,6-dimethyl-1H-pyrazolo[3,4-b]pyridin-4-yl)-3-methyl-4,5,6,7-tetrahydro-1H-pyrazolo[4,3-c]pyridin-1-yl)methyl)bicyclo[2.2.2]octan-1-yl)(methyl)carbamate]"
3,7.96,"Cc1cc(N2CCc3c(c(C)nn3CC34CCC(N5CC[C@H](O)C5)(CC3)CC4)C2)c2cnn(C)c2n1 [compound 75, (S)-1-(4-((5-(1,6-dimethyl-1H-pyrazolo[3,4-b]pyridin-4-yl)-3-methyl-4,5,6,7-tetrahydro-1H-pyrazolo[4,3-c]pyridin-1-yl)methyl)bicyclo[2.2.2]octan-1-yl)pyrrolidin-3-ol]"
4,8.00,"Cc1cc(N2CCc3c(c(C)nn3CC34CCC(N(C)C5COC5)(CC3)CC4)C2)c2cnn(C)c2n1 [Compound No. 77, N-(4-((5-(1,6-dimethyl-1H-pyrazolo[3,4-b]pyridin-4-yl)-3-methyl-4,5,6,7-tetrahydro-1H-pyrazolo[4,3-c]pyridin-1-yl)methyl)bicyclo[2.2.2]octan-1-yl)-N-methyloxetan-3-amine]"
5,8.15,"CCNC12CCC(Cn3nc(C)c4c3CCN(c3cc(C)nc5c3cnn5C)C4)(CC1)CC2 [compound 57, 4-((5-(1,6-dimethyl-1H-pyrazolo[3,4-b]pyridin-4-yl)-3-methyl-4,5,6,7-tetrahydro-1H-pyrazolo[4,3-c]pyridin-1-yl)methyl)-N-ethylbicyclo[2.2.]octan-1-amine]"
6,8.15,"Cc1cc(N2CCc3c(c(C)nn3CC34CCC(NC(=O)OC5(C)CC5)(CC3)CC4)C2)c2cnn(C)c2n1 [Compound No. 51, 1-methylcyclopropyl (4-((5-(1,6-dimethyl-1H-pyrazolo[3,4-b]pyridin-4-yl)-3-methyl-4,5,6,7-tetrahydro-1H-pyrazolo[4,3-c]pyridin-1-yl)methyl)bicyclo[2.2.2]octan-1-yl)carbamate]"
7,8.22,"CNC12CCC(Cn3nc(C)c4c3CCN(c3cc(C)nc5c3cnn5C)C4)(CC1)CC2 [Compound No. 50, 4-((5-(1,6-dimethyl-1H-pyrazolo[3,4-b]pyridin-4-yl)-3-methyl-4,5,6,7-tetrahydro-1H-pyrazolo[4,3-c]pyridin-1-yl)methyl)-N-methylbicyclo[2.2.2]octan-1-amine]"
8,8.30,"Cc1cc(N2CCc3c(c(C)nn3CC34CCC(NC(C)C)(CC3)CC4)C2)c2cnn(C)c2n1 [compound 55, 4-((5-(1,6-dimethyl-1H-pyrazolo[3,4-b]pyridin-4-yl)-3-methyl-4,5,6,7-tetrahydro-1H-pyrazolo[4,3-c]pyridin-1-yl)methyl)-N-isopropylbicyclo[2.2.]octan-1-amine]"
9,8.40,"Cc1cc(N2CCc3c(c(C)nn3CC34CCC(NC5CCC5)(CC3)CC4)C2)c2cnn(C)c2n1 [compound 54, N-cyclobutyl-4-((5-(1,6-dimethyl-1H-pyrazolo[3,4-b]pyridin-4-yl)-3-methyl-4,5,6,7-tetrahydro-1H-pyrazolo[4,3-c]pyridin-1-yl)methyl)bicyclo[2.2.2]octan-1-amine]"
10,8.40,"Cc1cc(N2CCc3c(c(C)nn3CC34CCC(N5CCC5)(CC3)CC4)C2)c2cnn(C)c2n1 [compound 64, 1-((4-(azetidin-1-yl)bicyclo[2.2.2]octan-1-yl)methyl)-5-(1,6-dimethyl-1H-pyrazolo[3,4-b]pyridin-4-yl)-3-methyl-4,5,6,7-tetrahydro-1H-pyrazolo[4,3-c]pyridine]"
11,8.40,"Cc1cc(N2CCc3c(c(C)nn3CC34CCC(N(C)C5CCC5)(CC3)CC4)C2)c2cnn(C)c2n1 [compound 79, N-cyclobutyl-4-((5-(1,6-dimethyl-1H-pyrazolo[3,4-b]pyridin-4-yl)-3-methyl-4,5,6,7-tetrahydro-1H-pyrazolo[4,3-c]pyridin-1-yl)methyl)-N-methylbicyclo[2.2.2]octan-1-amine]"
